Test results reported in ChEMBL document CHEMBL5050844 (2019).

Key:
[1] = Induction of anti-CD3/CD28 antibodies-stimulated human anergic T cell activation at 1.11 uM assessed fold increase in IFN-gamma secretion measured by ELISA assay; format: functional, T cell line
[2] = Induction of anti-CD3 antibodies-stimulated human exhausted CD8+ T cell activation assessed fold increase in CTLA4 expression measured by flow cytometry analysis; format: functional, T cell line; note: reference of the scale not given here
[3] = Induction of anti-CD3 antibodies-stimulated human exhausted T cell activation assessed fold increase in GM-CSF secretion measured by ELISA assay; format: functional, T cell line; note: reference of the scale not given here
[4] = Induction of anti-CD3/CD28 antibodies-stimulated human T cell activation at 1 uM assessed fold increase in CD25 expression measured by ELISA assay; format: functional, T cell line
[5] = Induction of anti-CD3/CD28 antibodies-stimulated human T cell activation at 0.3 uM assessed fold increase in CD25 expression measured by ELISA assay; format: functional, T cell line
[6] = Induction of anti-CD3 antibodies-stimulated human CD8+ T cell activation at 10 uM assessed fold increase in CD69 expression measured by flow cytometry analysis; format: functional, T cell line; note: reference of the scale not given here
[7] = Induction of anti-CD3 antibodies-stimulated human T cell activation at 1.11 uM assessed fold increase in GM-CSF secretion measured by ELISA assay; format: functional, T cell line; note: reference of the scale not given here
[8] = target: T1, E3 ubiquitin-protein ligase CBL-B (Homo sapiens, UniProt Q13191); assay: Inhibition of N-terminal Avi-tagged human CBL-B (36 to 427 residues) incubated with 60 nM Src kinase for 1.5 hrs followed by incubation with fluorescently labeled UbcH5B-Ub for 1 hr and measured by TR-FRET assay; format: single protein
T1 sequence (Q13191 whole entry, the tested form may be a part): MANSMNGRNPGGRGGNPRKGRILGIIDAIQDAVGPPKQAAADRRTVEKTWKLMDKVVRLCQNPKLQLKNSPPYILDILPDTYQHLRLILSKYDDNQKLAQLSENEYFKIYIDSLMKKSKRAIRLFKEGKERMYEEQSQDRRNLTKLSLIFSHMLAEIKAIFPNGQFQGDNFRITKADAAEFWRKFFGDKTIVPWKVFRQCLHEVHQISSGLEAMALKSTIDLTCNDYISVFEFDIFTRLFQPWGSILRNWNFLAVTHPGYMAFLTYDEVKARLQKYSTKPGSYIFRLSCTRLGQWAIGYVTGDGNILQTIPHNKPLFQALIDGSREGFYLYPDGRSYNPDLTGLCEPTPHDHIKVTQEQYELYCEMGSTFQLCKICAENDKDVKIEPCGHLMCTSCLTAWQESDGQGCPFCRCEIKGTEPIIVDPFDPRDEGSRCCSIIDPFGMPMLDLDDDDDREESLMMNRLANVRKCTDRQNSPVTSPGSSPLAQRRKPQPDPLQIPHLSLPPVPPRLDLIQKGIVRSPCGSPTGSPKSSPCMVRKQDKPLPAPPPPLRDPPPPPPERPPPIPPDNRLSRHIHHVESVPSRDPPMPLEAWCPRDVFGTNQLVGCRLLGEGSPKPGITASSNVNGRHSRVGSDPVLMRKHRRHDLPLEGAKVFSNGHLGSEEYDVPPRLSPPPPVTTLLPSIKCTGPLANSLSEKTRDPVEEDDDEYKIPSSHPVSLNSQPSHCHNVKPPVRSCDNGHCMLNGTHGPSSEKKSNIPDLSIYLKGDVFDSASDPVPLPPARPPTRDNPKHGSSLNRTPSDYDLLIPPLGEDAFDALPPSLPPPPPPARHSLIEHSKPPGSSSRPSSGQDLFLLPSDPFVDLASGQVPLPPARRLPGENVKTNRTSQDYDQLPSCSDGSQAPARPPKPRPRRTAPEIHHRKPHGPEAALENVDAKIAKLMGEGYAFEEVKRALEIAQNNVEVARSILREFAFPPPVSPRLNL

[9] = Induction of anti-CD3 antibodies-stimulated human T cell activation at 10 uM assessed fold increase in GM-CSF secretion measured by ELISA assay; format: functional, T cell line; note: reference of the scale not given here
[10] = Induction of anti-CD3 antibodies-stimulated human CD8+ T cell activation at 1.11 uM assessed fold increase in CD69 expression measured by flow cytometry analysis; format: functional, T cell line; note: reference of the scale not given here
[11] = Induction of activation of human CD56+ CD3- NK cells co-cultured with human K562 cells in 1:1 ratio and assessed as increase in TNF-alpha secretion at 10 uM measured by ELISA assay; format: functional, Natural killer cell
[12] = Induction of anti-CD3 antibodies-stimulated human T cell activation at 1 uM assessed fold increase in CD25 expression measured by ELISA assay; format: functional, T cell line; note: reference of the scale not given here
[13] = Induction of anti-CD3/CD28 antibodies-stimulated human CD8+ T cell activation at 1.11 uM assessed fold increase in cell proliferation measured by flow cytometry analysis; format: functional, T cell line
[14] = Induction of anti-CD3 antibodies-stimulated human CD8+ T cell activation at 1.11 uM assessed fold increase in cell proliferation measured by flow cytometry analysis; format: functional, T cell line; note: reference of the scale not given here
[15] = Induction of anti-CD3 antibodies-stimulated human T cell activation at 1.11 uM assessed fold increase in IFN-gamma secretion measured by ELISA assay; format: functional, T cell line; note: reference of the scale not given here
[16] = Induction of anti-CD3/CD28 antibodies-stimulated human CD4+ T cell activation at 10 uM assessed fold increase in cell proliferation measured by flow cytometry analysis; format: functional, T cell line
[17] = target: T1, E3 ubiquitin-protein ligase CBL-B; assay: Binding affinity towards N-terminal biotinylated Avi-tagged human CBL-B (36 to 427 residues) measured by surface plasmon resonance assay

| IC50 [8] | Kd [17] | Compound | fold change (FC) [1] | fold change (FC) [2] | fold change (FC) [3] | fold change (FC) [4] | fold change (FC) [5] | fold change (FC) [6] | fold change (FC) [7] | fold change (FC) [9] | fold change (FC) [10] | fold change (FC) [11] | fold change (FC) [12] | fold change (FC) [13] | fold change (FC) [14] | fold change (FC) [15] | fold change (FC) [16] |
| --- | --- | --- | --- | --- | --- | --- | --- | --- | --- | --- | --- | --- | --- | --- | --- | --- | --- |
| < 100 nM | – | Cn1cnnc1CC1(c2cccc(N3Cc4c(cc(CN5CC[C@H](C#N)C5)cc4C(F)(F)F)C3=O)c2)COC1 | 2.51 | >1.61 | 1.41 | 1.31 | 1.31 | 1.201 | 2.01 | 2.01 | <=1.2 | 2.01 | >=1.001 | 2.01 | 3.01 | <=2 | >4 |
| < 100 nM | < 100 nM | C[C@H](Cc1nncn1C)c1cccc(NC(=O)c2cc3cc(N4CCNCC4)ccc3cn2)c1.Cl | <=2.5 | 1.41 | <=1.4 | 1.01 | 1.01 | 1.201 | 1.51 | 1.51 | <=1.2 | 1.01 | 0.801 | 2.01 | 2.01 | <=2 | >4 |
| < 100 nM | – | Cn1cnnc1C(F)(F)[C@](C)(F)c1cccc(N2Cc3c(cc(CN4CC[C@@H](C#N)C4)cc3C(F)(F)F)C2=O)c1 | 2.51 | >1.61 | >1.61 | 1.31 | 1.01 | 1.401 | 1.51 | 2.01 | 1.201 | >=5 | 0.801 | 3.01 | >4 | 2.01 | >4 |
| – | – | C[C@H](Sc1nncn1C)c1cccc(NC(=O)c2cc(C(=O)N3CC[C@H](O)C3)ccn2)c1 | <=2.5 | <=1.4 | <=1.4 | 1.01 | 1.01 | 1.401 | 2.01 | 2.01 | 1.401 | <=1 | 0.601 | >4 | >4 | 3.01 | >4 |
| – | – | C[C@H](Cc1nncn1C)c1cccc(NC(=O)c2nc(C(F)(F)F)c[nH]2)c1 | <=2.5 | <=1.4 | <=1.4 | 1.01 | 1.01 | 1.201 | 1.51 | 2.01 | <=1.2 | 2.01 | 0.801 | 2.01 | 2.01 | <=2 | >4 |
| < 100 nM | < 100 nM | Cn1cnnc1CC1(c2cccc(NC(=O)c3nc4c(C(F)(F)F)cccc4[nH]3)c2)COC1 | 2.51 | >1.61 | <=1.4 | 1.51 | 1.31 | 1.401 | <=1.5 | 2.01 | 1.201 | 2.01 | 0.801 | 3.01 | >4 | <=2 | >4 |
| < 100 nM | < 100 nM | C[C@H](Cc1nncn1C)c1cccc(N2Cc3c(cc(CN4CC(O)C4)cc3C(F)(F)F)C2=O)c1 | 2.51 | >1.61 | 1.41 | 1.31 | 1.01 | <=1.2 | <=1.5 | <=1.5 | <=1.2 | 2.01 | >=1.001 | <=2 | <=2 | <=2 | 3.01 |
| – | – | C[C@H](Cc1nncn1C)c1cccc(NC(=O)c2n[nH]c3c2CCC3)c1 | <=2.5 | <=1.4 | <=1.4 | 1.01 | 1.01 | <=1.2 | <=1.5 | 1.51 | 1.401 | 1.01 | 0.601 | 3.01 | >4 | 2.01 | >4 |
| – | – | Cn1cnnc1[C@@H]1C[C@@H]1c1cccc(N2Cc3c(ccnc3C(F)(F)F)C2=O)c1 | <=2.5 | <=1.4 | <=1.4 | 1.01 | 1.01 | <=1.2 | <=1.5 | <=1.5 | <=1.2 | 1.01 | 0.601 | <=2 | <=2 | <=2 | >4 |
| < 100 nM | < 100 nM | C[C@H](Cc1nncn1C)c1cccc(N2Cc3c(cc(CN4CC(C)(O)C4)cc3C(F)(F)F)C2=O)c1 | >4.01 | >1.61 | 1.41 | 1.31 | 1.01 | 1.401 | 2.01 | 2.01 | 1.201 | 2.01 | >=1.001 | 3.01 | >4 | <=2 | >4 |
| – | – | Cc1cc(C(=O)Nc2cccc([C@@H](C)Cc3nncn3C)c2)nc(C2CC2)n1 | <=2.5 | <=1.4 | <=1.4 | 1.01 | 1.01 | 1.201 | <=1.5 | 1.51 | <=1.2 | 1.01 | 0.801 | 2.01 | 2.01 | <=2 | >4 |
| – | – | Cc1cc2c(c(C3CC3)n1)CN(c1cccc([C@H](C)Cc3nncn3C)c1)C2=O | <=2.5 | <=1.4 | <=1.4 | 1.01 | 1.01 | 1.201 | <=1.5 | 1.51 | <=1.2 | 1.01 | 0.601 | <=2 | <=2 | <=2 | >4 |
| – | – | C[C@H](Cc1nncn1C)c1cccc(NC(=O)c2cccc(CCO)n2)c1 | <=2.5 | <=1.4 | <=1.4 | 1.01 | 1.01 | <=1.2 | <=1.5 | 1.51 | <=1.2 | 1.01 | <=0.6 | <=2 | <=2 | <=2 | 3.01 |
| – | – | C[C@H](Cc1nncn1C)c1cccc(N2Cc3c(ccnc3C3CC3)C2=O)c1 | <=2.5 | <=1.4 | <=1.4 | 1.01 | 1.01 | 1.201 | 1.51 | 2.01 | <=1.2 | 2.01 | 0.601 | <=2 | <=2 | <=2 | >4 |
